US12685726B2, “Sulfoximines as inhibitors of NaV1.8” (Gruenenthal GmbH, priority 2022, dated 2026)

Molecular target: T1, human NaV 1.8 (Homo sapiens, UniProt Q9Y5Y9)
T1 construct: expressed in transfected cells; host or cells: HEK (recombinant cell line)
Assay: Automated whole-cell patch clamp (Qube384) voltage-clamp recordings of sodium currents in HEK-NaV1.8 cell line
Type: cell-based
Details: read-out: Potency category (human NaV 1.8 IC50)
Outline: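 HEK cells expressing NaV1.8 with b3, whole-cell automated voltage clamp at room temperature or 19° C.; CsF-based internal, pH 7.4 external. State-dependent (−120 mV, V1/2 4 s, −10 mV test pulses) and 10/20 Hz 40-pulse protocols; ~12 min compound, vehicle-corrected, IC50 by 4-parameter logistic fit.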

T1 sequence (Q9Y5Y9 whole entry): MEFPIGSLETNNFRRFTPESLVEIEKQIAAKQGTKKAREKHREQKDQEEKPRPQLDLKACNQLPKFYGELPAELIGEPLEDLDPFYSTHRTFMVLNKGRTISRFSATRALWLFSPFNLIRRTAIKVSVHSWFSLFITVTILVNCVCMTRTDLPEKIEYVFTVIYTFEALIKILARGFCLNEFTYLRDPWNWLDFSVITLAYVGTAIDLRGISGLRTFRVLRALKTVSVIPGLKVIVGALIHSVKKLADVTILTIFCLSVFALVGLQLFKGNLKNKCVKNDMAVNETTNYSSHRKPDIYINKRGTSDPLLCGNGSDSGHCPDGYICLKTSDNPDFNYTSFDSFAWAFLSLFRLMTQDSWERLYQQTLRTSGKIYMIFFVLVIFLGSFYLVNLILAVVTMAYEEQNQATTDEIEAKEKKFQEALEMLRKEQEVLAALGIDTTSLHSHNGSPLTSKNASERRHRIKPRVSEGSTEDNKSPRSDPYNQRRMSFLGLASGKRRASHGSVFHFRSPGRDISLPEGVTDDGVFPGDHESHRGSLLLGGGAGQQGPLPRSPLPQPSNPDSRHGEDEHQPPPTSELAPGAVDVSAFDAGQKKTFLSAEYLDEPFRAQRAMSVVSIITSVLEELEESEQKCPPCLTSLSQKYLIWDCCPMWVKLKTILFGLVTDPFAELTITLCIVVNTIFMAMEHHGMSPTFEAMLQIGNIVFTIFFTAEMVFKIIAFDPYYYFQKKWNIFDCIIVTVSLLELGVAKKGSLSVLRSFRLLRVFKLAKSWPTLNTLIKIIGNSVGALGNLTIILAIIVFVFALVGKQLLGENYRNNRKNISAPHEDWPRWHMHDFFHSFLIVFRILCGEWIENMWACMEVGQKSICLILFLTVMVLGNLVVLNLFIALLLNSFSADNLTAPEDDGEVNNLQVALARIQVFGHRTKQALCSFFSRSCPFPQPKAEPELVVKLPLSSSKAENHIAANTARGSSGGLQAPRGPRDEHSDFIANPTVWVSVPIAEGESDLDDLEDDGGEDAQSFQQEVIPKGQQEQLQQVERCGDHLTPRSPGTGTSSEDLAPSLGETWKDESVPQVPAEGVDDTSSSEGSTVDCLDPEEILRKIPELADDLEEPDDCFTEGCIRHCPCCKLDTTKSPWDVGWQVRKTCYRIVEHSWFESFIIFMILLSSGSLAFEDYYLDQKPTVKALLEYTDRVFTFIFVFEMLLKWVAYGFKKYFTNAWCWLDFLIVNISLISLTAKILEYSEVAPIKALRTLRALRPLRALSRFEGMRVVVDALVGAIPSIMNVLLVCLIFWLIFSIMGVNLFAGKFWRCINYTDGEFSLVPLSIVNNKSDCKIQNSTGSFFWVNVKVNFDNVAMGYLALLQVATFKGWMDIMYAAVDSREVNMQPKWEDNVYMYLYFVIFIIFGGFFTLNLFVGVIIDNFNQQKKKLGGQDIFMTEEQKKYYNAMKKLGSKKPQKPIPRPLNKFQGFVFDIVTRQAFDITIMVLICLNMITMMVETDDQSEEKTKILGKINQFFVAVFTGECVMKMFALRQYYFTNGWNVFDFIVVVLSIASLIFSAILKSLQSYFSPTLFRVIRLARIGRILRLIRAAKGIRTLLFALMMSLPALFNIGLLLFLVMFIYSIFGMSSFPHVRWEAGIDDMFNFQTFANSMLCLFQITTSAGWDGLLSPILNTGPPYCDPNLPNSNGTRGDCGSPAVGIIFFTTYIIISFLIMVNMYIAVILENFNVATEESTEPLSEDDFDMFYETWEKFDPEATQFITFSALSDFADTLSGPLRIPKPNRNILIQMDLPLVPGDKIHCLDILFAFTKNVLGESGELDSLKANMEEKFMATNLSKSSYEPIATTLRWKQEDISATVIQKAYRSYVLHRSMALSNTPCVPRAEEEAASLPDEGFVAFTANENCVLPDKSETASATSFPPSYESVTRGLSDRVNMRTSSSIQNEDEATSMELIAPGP

For CC1(Cn2nc(C(C)(C)F)c(C(F)(F)F)c2C(=O)Nc2ccnc(S(C)(=N)=O)c2)CC(F)(F)C1 (single isomer, unassigned) [Example 148a, 1-((3,3-Difluoro-1-methylcyclobutyl)methyl)-3-(2-fluoropropan-2-yl)-N-(2-(S-methylsulfonimidoyl)pyridin-4-yl)-4-(trifluoromethyl)-1H-pyrazole-5-carboxamide], the IC50 was ≤ 100 nM.
In the case of C[S@](=N)(=O)c1cccc(NC(=O)c2c(C(F)(F)F)c(C3(F)CC3)nn2CC2C[C@@H]2C(F)(F)F)c1 (single isomer, unassigned) [Example 134b, 3-(1-Fluorocyclopropyl)-N-(3-(S-methylsulfonimidoyl)phenyl)-4-(trifluoromethyl)-1-(((trans)-2-(trifluoromethyl)cyclopropyl)methyl)-1H-pyrazole-5-carboxamide], the IC50 is reported as ≤ 100 nM.
In the case of CC1(Cn2nc(C3(C#N)CC3)c(C(F)(F)F)c2C(=O)Nc2ccnc(S(C)(=N)=O)c2)CC(F)(F)C1 (single isomer, unassigned) [Example 68a, 3-(1-cyanocyclopropyl)-1-((3,3-difluoro-1-methylcyclobutyl)methyl)-N-(2-(S-methylsulfonimidoyl)pyridin-4-yl)-4-(trifluoromethyl)-1H-pyrazole-5-carboxamide], the IC50 is reported as ≤ 100 nM.
With CC1(Cn2nc(C3CC3)c(C(F)(F)F)c2C(=O)Nc2cncc(S(C)(=N)=O)c2)CC(F)(F)C1 (single isomer, unassigned) [Example 46a, 3-cyclopropyl-1-((3,3-difluoro-1-methylcyclobutyl)methyl)-N-(5-(S-methylsulfonimidoyl)pyridin-3-yl)-4-(trifluoromethyl)-1H-pyrazole-5-carboxamide] the IC50 was ≤ 100 nM.
In the case of CS(=N)(=O)c1cc(NC(=O)c2c(C(F)(F)F)c(C3CC3)nn2CC2CCC(F)(F)C2)ccn1 (single isomer, unassigned) [Example 7a, 3-cyclopropyl-1-((3,3-difluorocyclopentyl)methyl)-N-(2-(S-methylsulfonimidoyl)pyridin-4-yl)-4-(trifluoromethyl)-1H-pyrazole-5-carboxamide], the IC50 is reported as ≤ 100 nM.
For Cc1c(C(C)(F)F)nn(CC2(C)CC(F)(F)C2)c1C(=O)Nc1ccnc(S(C)(=N)=O)c1 (single isomer, unassigned) [Example 5b, 1-((3,3-difluoro-1-methylcyclobutyl)methyl)-3-(1,1-difluoroethyl)-4-methyl-N-(2-(S-methylsulfonimidoyl)pyridin-4-yl)-1H-pyrazole-5-carboxamide], the IC50 was ≤ 100 nM.
